From ChEMBL document CHEMBL1142171, “Identification and structural characterization of I84C and I84A mutations that are associated with high-level resistance to human immunodeficiency virus protease inhibitors and impair viral replication” (2007)

Legend:
Type in all cases: functional, HEK293
[1] = tested on: Human immunodeficiency virus 1; assay: Antiviral activity against HIV1 C1 isolate with protease I84C mutation in HEK 293 cells relative to wild type
[2] = tested on: Human immunodeficiency virus 1; assay: Antiviral activity against HIV1 A15 isolate with protease I84A mutation in HEK 293 cells relative to wild type
[3] = tested on: Human immunodeficiency virus 1; assay: Resistance to HIV1 with protease 46I/L, 54I and I84C mutation in HEK 293 cells relative to similar background
[4] = tested on: Human immunodeficiency virus 1; assay: Resistance to HIV1 with protease 46I, 54V and I84V mutation in HEK 293 cells relative to similar background
[5] = tested on: Human immunodeficiency virus 1; assay: Antiviral activity against HIV1 C11 isolate with protease I84C mutation in HEK 293 cells relative to wild type
[6] = tested on: Human immunodeficiency virus 1; assay: Antiviral activity against HIV1 C7 isolate with protease I84C mutation in HEK 293 cells relative to wild type
[7] = tested on: Human immunodeficiency virus 1; assay: Antiviral activity against HIV1 A11 isolate with protease I84A mutation in HEK 293 cells relative to wild type
[8] = tested on: Human immunodeficiency virus 1; assay: Antiviral activity against HIV1 C6 isolate with protease I84C mutation in HEK 293 cells relative to wild type
[9] = tested on: Human immunodeficiency virus 1; assay: Resistance to HIV1 with protease 46M, 54I and I84V mutation in HEK 293 cells relative to similar background
[10] = tested on: Human immunodeficiency virus 1; assay: Antiviral activity against HIV1 C9 isolate with protease I84C mutation in HEK 293 cells relative to wild type
[11] = tested on: Human immunodeficiency virus 1; assay: Resistance to HIV1 with protease 46I, 54I and I84A mutation in HEK 293 cells relative to similar background
[12] = tested on: Human immunodeficiency virus 1; assay: Antiviral activity against HIV1 C5 isolate with protease I84C mutation in HEK 293 cells relative to wild type
[13] = tested on: Human immunodeficiency virus 1; assay: Antiviral activity against HIV1 C4 isolate with protease I84C mutation in HEK 293 cells relative to wild type
[14] = tested on: Human immunodeficiency virus 1; assay: Antiviral activity against HIV1 C3 isolate with protease I84C mutation in HEK 293 cells relative to wild type
[15] = tested on: Human immunodeficiency virus 1; assay: Resistance to HIV1 with protease 46I, 54I and I84V mutation in HEK 293 cells relative to similar background
[16] = tested on: Human immunodeficiency virus 1; assay: Antiviral activity against HIV1 A3 isolate with protease I84A mutation in HEK 293 cells relative to wild type
[17] = tested on: Human immunodeficiency virus 1; assay: Antiviral activity against HIV1 A6 isolate with protease I84A mutation in HEK 293 cells relative to wild type
[18] = tested on: Human immunodeficiency virus 1; assay: Antiviral activity against HIV1 A10 isolate with protease I84A mutation in HEK 293 cells relative to wild type
[19] = tested on: Human immunodeficiency virus 1; assay: Antiviral activity against HIV1 A13 isolate with protease I84A mutation in HEK 293 cells relative to wild type
[20] = tested on: Human immunodeficiency virus 1; assay: Antiviral activity against HIV1 C8 isolate with protease I84C mutation in HEK 293 cells relative to wild type
[21] = tested on: Human immunodeficiency virus 1; assay: Antiviral activity against HIV1 A9 isolate with protease I84A mutation in HEK 293 cells relative to wild type
[22] = tested on: Human immunodeficiency virus 1; assay: Antiviral activity against HIV1 A1 isolate with protease I84A mutation in HEK 293 cells relative to wild type
[23] = tested on: Human immunodeficiency virus 1; assay: Resistance to HIV1 with protease 46I, 54M/V and I84A mutation in HEK 293 relative to similar background
[24] = tested on: Human immunodeficiency virus 1; assay: Antiviral activity against HIV1 C10 isolate with protease I84C mutation in HEK 293 cells relative to wild type
[25] = tested on: Human immunodeficiency virus 1; assay: Antiviral activity against HIV1 A5 isolate with protease I84A mutation in HEK 293 cells relative to wild type
[26] = tested on: Human immunodeficiency virus 1; assay: Resistance to HIV1 with protease 46M, 54I and I84C mutation in HEK 293 cells relative to similar background
[27] = tested on: Human immunodeficiency virus 1; assay: Antiviral activity against HIV1 A12 isolate with protease I84A mutation in HEK 293 cells relative to wild type
[28] = tested on: Human immunodeficiency virus 1; assay: Antiviral activity against HIV1 A7 isolate with protease I84A mutation in HEK 293 cells relative to wild type
[29] = tested on: Human immunodeficiency virus 1; assay: Antiviral activity against HIV1 A14 isolate with protease I84A mutation in HEK 293 cells relative to wild type
[30] = tested on: Human immunodeficiency virus 1; assay: Antiviral activity against HIV1 A8 isolate with protease I84A mutation in HEK 293 cells relative to wild type
[31] = tested on: Human immunodeficiency virus 1; assay: Antiviral activity against HIV1 A4 isolate with protease I84A mutation in HEK 293 cells relative to wild type
[32] = tested on: Human immunodeficiency virus 1; assay: Antiviral activity against HIV1 C2 isolate with protease I84C mutation in HEK 293 cells relative to wild type
[33] = tested on: Human immunodeficiency virus 1; assay: Antiviral activity against HIV1 A2 isolate with protease I84A mutation in HEK 293 cells relative to wild type

Structure (SMILES) | Fold change [1] | Fold change [2] | Fold change [3] | Fold change [4] | Fold change [5] | Fold change [6] | Fold change [7] | Fold change [8] | Fold change [9] | Fold change [10] | Fold change [11] | Fold change [12] | Fold change [13] | Fold change [18] | Fold change [19] | Fold change [21] | Fold change [22] | Fold change [24] | Fold change [27] | Fold change [29] | other results
Cc1cccc(C)c1OCC(=O)N[C@@H](Cc1ccccc1)[C@@H](O)C[C@H](Cc1ccccc1)NC(=O)[C@H](C(C)C)N1CCCNC1=O [LOPINAVIR] | 0.4 | 75 | 3.1 | 80 | 2.8 | 7.2 | 14 | 47 | 2.8 | 2.3 | 14 | 3.1 | 3.1 | 59 | 50 | 16 | 10 | 5.1 | 210 | 104 | Fold change [14]: 1.6; Fold change [15]: 8.9; Fold change [16]: 11; Fold change [17]: 14; Fold change [20]: 2.9; Fold change [23]: 75; Fold change [25]: 9; Fold change [26]: 2.2; Fold change [28]: 124; Fold change [30]: 94; Fold change [31]: 14
CC(C)(C)NC(=O)[C@@H]1CN(Cc2cccnc2)CCN1C[C@@H](O)C[C@@H](Cc1ccccc1)C(=O)N[C@H]1c2ccccc2C[C@H]1O.O | 1.2 | 118 | 8.6 | 19 | 5.7 | 42 | 73 | 63 | 2.4 | 5.5 | 73 | 3.8 | 11 | 400 | 178 | 138 | 73 | 5.5 | 400 | 152 | Fold change [32]: 1.3; Fold change [14]: 4.1; Fold change [15]: 9.1; Fold change [16]: 78; Fold change [17]: 38; Fold change [20]: 6.4; Fold change [33]: 27; Fold change [23]: 178; Fold change [25]: 53; Fold change [26]: 4.1; Fold change [28]: 92; Fold change [30]: 400; Fold change [31]: 58
Cc1c(O)cccc1C(=O)N[C@@H](CSc1ccccc1)[C@H](O)CN1C[C@H]2CCCC[C@H]2C[C@H]1C(=O)NC(C)(C)C | 15 | 600 | 115 | 16 | 91 | 600 | 600 | 144 | 4 | 70 | >600 | 51 | 395 | 600 | 196 | 600 | 600 | 286 | 600 | 210 | Fold change [32]: 59; Fold change [14]: 74; Fold change [15]: 9; Fold change [16]: 600; Fold change [17]: 64; Fold change [20]: 86; Fold change [33]: 600; Fold change [23]: >600; Fold change [25]: 600; Fold change [26]: 74; Fold change [28]: 600; Fold change [30]: 600; Fold change [31]: 600
CC(C)(C)NC(=O)[C@@H]1C[C@@H]2CCCC[C@@H]2CN1C[C@@H](O)[C@H](Cc1ccccc1)NC(=O)[C@H](CC(N)=O)NC(=O)c1ccc2ccccc2n1 | 6.1 | 1000 | 80 | 20 |  | 1000 | 1000 | 24 | 4.3 |  | 261 | 41 | 92 | 1000 | 1000 | 1000 | 1000 | 242 | 1000 | 69 | Fold change [32]: 14; Fold change [14]: 56; Fold change [15]: 4.3; Fold change [16]: 365; Fold change [17]: 24; Fold change [20]: 68; Fold change [33]: 141; Fold change [23]: >1000; Fold change [25]: 256; Fold change [26]: 56; Fold change [28]: 1000; Fold change [30]: 265.5; Fold change [31]: 241
COC(=O)N[C@H](C(=O)N[C@@H](Cc1ccccc1)[C@@H](O)CN(Cc1ccc(-c2ccccn2)cc1)NC(=O)[C@@H](NC(=O)OC)C(C)(C)C)C(C)(C)C [ATAZANAVIR] |  | 253 |  |  | 5 |  | 63 |  |  | 9.1 |  |  |  | 700 | 700 | 52 | 38 | 19 | 25 | 21 | 
